According to ChEMBL document CHEMBL4038282 (Eur J Med Chem, 2017):

Legend:
MDA-MB-231 [1] = test: Antiproliferative activity against human MDA-MB-231 cells up to 72 hrs by MTT assay; type: functional, cell-based; settings: MDA-MB-231, 72 h
PC-3 = test: Antiproliferative activity against human PC3 cells up to 72 hrs by MTT assay; type: functional, cell-based; settings: PC-3, 72 h
MDA-MB-231 [2] = test: Potency index, ratio of curcumin IC50 to compound IC50 for human MDA-MB-231 cells; type: functional
MDA-MB-468 [3] = test: Potency index, ratio of curcumin IC50 to compound IC50 for doxorubicin-resistant human MDA-MB-468 cells; type: functional
HCT-116 = test: Antiproliferative activity against human HCT116 cells up to 72 hrs by MTT assay; type: functional, cell-based; settings: HCT-116, 72 h
Mus musculus [4] = test: Acute-toxicity in nu/nu mouse assessed as behavioral changes at 500 mg/kg, po administered once daily for 5 days measured for 21 days; type: organism-based; settings: in vivo, 504 h
MDA-MB-468 [5] = test: Antiproliferative activity against doxorubicin-resistant human MDA-MB-468 cells after 24 hrs by MTT assay; type: functional, cell-based; settings: MDA-MB-468, 24 h
Mus musculus [6] = test: Acute-toxicity in nu/nu mouse assessed as changes in body weight at 500 mg/kg, po administered once daily for 5 days measured for 21 days; type: organism-based; settings: in vivo, 504 h
Mus musculus [7] = test: Toxicity in nu/nu mouse assessed as change in body weight at 1 mg/kg, ip administered once daily for 32 days; type: organism-based; settings: in vivo, 768 h
MDA-MB-231 [8] = test: Anti-tumor activity against human MDA-MB-231 cells xenografted in nu/nu mouse assessed as reduction in tumor weight at 1 mg/kg, ip administered once daily for 32 days; type: functional; parameters: scale not given: the % may be the effect or the level left
Mus musculus [9] = test: Toxicity in nu/nu mouse assessed as hematological changes at 1 mg/kg, ip administered once daily for 32 days; type: organism-based; settings: in vivo, 768 h
Mus musculus [10] = test: Toxicity in nu/nu mouse assessed as behavioral changes at 1 mg/kg, ip administered once daily for 32 days; type: organism-based; settings: in vivo, 768 h

Row | SMILES | IC50 (MDA-MB-231 [1]) [nM] | IC50 (PC-3) [nM] | Ratio IC50 (MDA-MB-231 [2]) | Ratio IC50 (MDA-MB-468 [3]) | IC50 (HCT-116) [nM] | Activity (Mus musculus [4]) | IC50 (MDA-MB-468 [5]) [nM] | Activity (Mus musculus [6]) | Activity (Mus musculus [7]) | Activity (MDA-MB-231 [8]) [%] | Activity (Mus musculus [9]) | Activity (Mus musculus [10])
1 | CC(CO)(CO)C(=O)Oc1ccc(/C=C/C(=O)/C=C(O)/C=C/c2ccc(O)cc2)cc1 | 1330 | 5220 | 12 |  |  |  |  |  |  |  |  | 
2 | COc1cc(/C=C/C(=O)C(C)(C)C(=O)/C=C/c2ccc(OC(=O)C(C)(CO)CO)c(OC)c2)ccc1OC(=O)C(C)(CO)CO | 1980 | 1760 | 2.4 - 12.2 | 10 | 1650 | Non-Toxic | 5710 | Non-Toxic |  |  |  | 
3 | COc1cccc2c1C(=O)c1c(O)c3c(c(O)c1C2=O)C[C@@](O)(C(=O)CO)C[C@@H]3O[C@H]1C[C@H](N)[C@H](O)[C@H](C)O1 [DOXORUBICIN] |  |  |  |  |  |  |  |  | Non-Toxic | 60 | Non-Toxic | Non-Toxic

Further lines, with some results ahead:

Row | IC50 (MDA-MB-231 [1]) [nM] | IC50 (PC-3) [nM] | SMILES | Ratio IC50 (MDA-MB-231 [2]) | Ratio IC50 (MDA-MB-468 [3]) | IC50 (HCT-116) [nM] | Activity (Mus musculus [4]) | IC50 (MDA-MB-468 [5]) [nM] | Activity (Mus musculus [6]) | Activity (Mus musculus [7]) | Activity (MDA-MB-231 [8]) [%] | Activity (Mus musculus [9]) | Activity (Mus musculus [10])
4 | 2980 | 3620 | CC(CO)(CO)C(=O)Oc1ccc(/C=C/C(=O)C(C)(C)C(=O)/C=C/c2ccc(OC(=O)C(C)(CO)CO)cc2)cc1 | 2.4 - 12.2 |  | 2630 |  |  |  |  |  |  | 
5 | 2700 |  | COc1ccc(/C=C/C(=O)C(C)(C)C(=O)/C=C/c2ccc(OC)c(OC(=O)C(C)(CO)CO)c2)cc1OC(=O)C(C)(CO)CO | 2.4 - 12.2 |  |  |  |  |  |  |  |  | 
